Consider seven compounds from PubChem BioAssay (NCI).

Holding throughout (test): NCI-60 cell line screen, 48 h
Assay [1] relates to SF-539 CNS.
In assay [2] the test system is LOX IMVI melanoma.
In assay [3] the test system is HT29 colon.
Assay [4] concerns SK-MEL-2 melanoma.
Assay [5] deals with SNB-75 CNS.
Assay [6] concerns CAKI-1 renal.
The test system of assay [7] is COLO 205 colon.
Assay [8] relates to M14 melanoma.
Assay [9] deals with SK-MEL-5 melanoma.
Assay [10] relates to UACC-62 melanoma.

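In this assay, cells in 96-well plates receive the compound at five concentrations for 48 hours. Endpoints are linearly interpolated between the surrounding concentrations. At the GI50, growth is halved. TGI: concentration producing complete growth inhibition.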

`CC(C)=CCC/C(C)=C/C=C/C(C)=C/C1C[C@@]2(C(O)O1)[C@H](CCCO)/C(=C(/C)C=O)CC[C@]2(C)O` (stereo not given in full): the TGI is 25 µM in [1]; 28 µM in assay [2]; 33.3 µM in assay [3]; 34.6 µM in [4]; 69.9 µM in [5]; 25.6 µM in assay [6]. Besides, the TGI was determined as 13.4 µM in assay [7] and 32.2 µM in [8].
As to `CCOC(=O)c1csc(NC(=O)C(C)N2CCOCC2)n1` (stereo not given), the TGI in assay [1], in assay [2], in [3], in [4], in assay [5] and in assay [6] was greater than 100 µM throughout. The TGI in assay [7], in [9], in assay [10] and in assay [8] was greater than 100 µM each time.
`C/C(=N\NC(=S)N1CCOCC1)c1nc2ncccc2[nH]1`: the TGI is 51.4 µM in assay [1]; greater than 100 µM in assay [2]; greater than 100 µM in assay [3]; 69.4 µM in assay [4]; 44.1 µM in assay [5]; greater than 100 µM in [6]. For the same compound, the TGI in assay [7], in assay [9], in assay [10] and in [8] was greater than 100 µM throughout.
As to `Cc1cc(Nc2ccc(Cl)cc2)nc(NCCCNc2ccnc3cc(Cl)ccc23)n1`, the GI50 in [1] is 1.65 µM; in [2], 1.64 µM; in assay [4], 1.86 µM; in [5], 1.33 µM; in [6], 1.53 µM; in [7], 1.66 µM. The results for the GI50 in assay [9] and in [10] were 1.57 µM and 1.79 µM, respectively. In addition, the TGI in [1] came to 3.13 µM; in assay [2], 3.18 µM; in assay [4] it was 3.57 µM; in assay [5], 2.6 µM; in [6], 2.9 µM; in assay [7], 3.31 µM. Further, the TGI in assay [9] stood at 2.91 µM; in assay [10], 3.58 µM.
`COC(=O)C(NC(=O)c1ccccc1)C(c1c(O)cc(O)cc1O)P(=O)(OC)OC` (stereo not given): the TGI in assay [1], in assay [2], in assay [3], in assay [4], in [5] and in assay [6] was greater than 100 µM in each case. In addition, the TGI in assay [7], in assay [9], in assay [10] and in assay [8] was greater than 100 µM in each case.
In the case of `NC(Cc1ccccc1CP(=O)(O)O)C(=O)O` (stereo not given), the TGI in [1], in assay [2], in assay [3], in assay [4], in [5] and in [6] was greater than 100 µM each time. Also, the TGI in assay [7], in assay [9], in [10] and in assay [8] was greater than 100 µM throughout.
`CCN(CC)CCNc1ccc([N+](=O)[O-])c2sc3cc(Cl)ccc3c(=O)c12`: the GI50 in assay [1] was 2.05 µM; in [2], 2.8 µM; in [3] it was 1.7 µM; in assay [4], 21.8 µM; in assay [7], 3.93 µM; in assay [9] it was 3.59 µM. Also, the GI50 in assay [10] is 3.11 µM; in assay [8] it was 3.1 µM. The TGI was 5.25 µM in assay [1]; greater than 100 µM in [2]; greater than 100 µM in assay [3]; greater than 100 µM in [4]; greater than 100 µM in assay [7]; greater than 100 µM in assay [9]. Moreover, the TGI in assay [10] and in assay [8] was greater than 100 µM in each case.
